Measurements: BindingDB's records for doi:10.1016/j.ejmech.2021.113512 (Jagiellonian University Medical College, 2021)

Test: Inhibition of mouse GAT3 expressed in human HEK293 cell line assessed as inhibition of [3H]GABA uptake measured after 40 mins […]

| Compound | IC50 |
| --- | --- |
| Cc1ccc(CNC(=O)C(CCO)N(C)CCC=C2c3ccccc3C=Cc3ccccc32)cc1 (configuration not stated) | 17 µM |
| CN(CCC=C1c2ccccc2-c2ccccc21)C(CCO)C(=O)NCc1ccccc1Cl (configuration not stated) | 16.2 µM |
| CN(CCC=C1c2ccccc2C=Cc2ccccc21)C(CCO)C(=O)NCc1ccc(Cl)cc1 (configuration not stated) | 13.5 µM |
| CN(CCC=C1c2ccccc2CCc2ccccc21)C(CCO)C(=O)NCc1ccc(F)cc1 (configuration not stated) | 16.6 µM |
| CN(CCC=C1c2ccccc2-c2ccccc21)C(CCO)C(=O)NCc1ccccc1 (configuration not stated) | 12.6 µM |
| Cc1ccc(CNC(=O)C(CCO)N(C)CCC=C2c3ccccc3CCc3ccccc32)cc1 (configuration not stated) | 12.6 µM |
| CN(CCC=C1c2ccccc2CCc2ccccc21)C(CCO)C(=O)NCc1ccccc1Cl (configuration not stated) | 12.6 µM |
| CN(CCC=C1c2ccccc2CCc2ccccc21)C(CCO)C(=O)NCc1ccccc1 (configuration not stated) | 11.5 µM |
| CN(CCC=C1c2ccccc2-c2ccccc21)C(CCO)C(=O)NCc1ccc(F)cc1 (configuration not stated) | 13.5 µM |
| Cc1ccc(CNC(=O)C(CCO)N(C)CCC=C2c3ccccc3-c3ccccc32)cc1 (configuration not stated) | 20 µM |
| CC(=O)NCCC(C(=O)NCc1ccc(Cl)cc1)N(C)CCC=C1c2ccccc2CCc2ccccc21 (configuration not stated) | 14.5 µM |
| Cc1ccsc1C(=CCCN(C)[C@H]1CCCC[C@H]1C(=O)O)c1sccc1C | 933 µM |
| CN(CCC=C1c2ccccc2C=Cc2ccccc21)C(CCO)C(=O)NCc1ccc(F)cc1 (configuration not stated) | 12.3 µM |
| CN(CCC=C1c2ccccc2C=Cc2ccccc21)C(CCO)C(=O)NCc1ccccc1 (configuration not stated) | 13.5 µM |

Compounds with a lower IC50, results first:

| IC50 | Compound |
| --- | --- |
| 10.2 µM | CN(CCC=C1c2ccccc2-c2ccccc21)C(CCO)C(=O)NCc1ccc(Cl)cc1 (configuration not stated) |
| 10 µM | CN(CCC=C(c1ccccc1)c1ccccc1)C(CCN)C(=O)NCc1ccccc1Cl (configuration not stated) |
| 8.91 µM | CN(CCC=C1c2ccccc2C=Cc2ccccc21)C(CCO)C(=O)NCc1ccccc1Cl (configuration not stated) |
| 8.13 µM | CN(CCC=C1c2ccccc2CCc2ccccc21)C(CCN)C(=O)NCc1ccccc1Cl (configuration not stated) |
| 5.62 µM | CC(=O)NCCC(C(=O)NCc1ccc(C)cc1)N(C)CCC=C1c2ccccc2CCc2ccccc21 (configuration not stated) |
| 5.13 µM | CN(CCC=C1c2ccccc2CCc2ccccc21)C(CCN)C(=O)NCc1ccc(Cl)cc1 (configuration not stated) |
| 4.79 µM | CN(CCC=C1c2ccccc2CCc2ccccc21)C(CCN)C(=O)NCc1ccc(F)cc1 (configuration not stated) |
| 4.79 µM | Cc1ccc(CNC(=O)C(CCN)N(C)CCC=C2c3ccccc3CCc3ccccc32)cc1 (configuration not stated) |
